These results are taken from paper PMC11420878, “Labeling of CC Chemokine Receptor 2 with a Versatile Intracellular Allosteric Probe” (ACS Chemical Biology, 2024).

The Ki is the dissociation constant of the complex between target and ligand, obtained from inhibition or displacement.

Common to all, as to assay type: binding
The target of assay [1] is T1, CC chemokine receptor 2 (CCR2) (Homo sapiens, UniProt P41597). Nature of the assay: [3H]CCR2-RA-[R] displacement, […] h preincubation; in-gel fluorescence labeling. Also on record: CCR2 stably expressed in U2OS membranes; HA-CCR2 in HEK293T membranes.
T1 sequence (P41597 whole entry): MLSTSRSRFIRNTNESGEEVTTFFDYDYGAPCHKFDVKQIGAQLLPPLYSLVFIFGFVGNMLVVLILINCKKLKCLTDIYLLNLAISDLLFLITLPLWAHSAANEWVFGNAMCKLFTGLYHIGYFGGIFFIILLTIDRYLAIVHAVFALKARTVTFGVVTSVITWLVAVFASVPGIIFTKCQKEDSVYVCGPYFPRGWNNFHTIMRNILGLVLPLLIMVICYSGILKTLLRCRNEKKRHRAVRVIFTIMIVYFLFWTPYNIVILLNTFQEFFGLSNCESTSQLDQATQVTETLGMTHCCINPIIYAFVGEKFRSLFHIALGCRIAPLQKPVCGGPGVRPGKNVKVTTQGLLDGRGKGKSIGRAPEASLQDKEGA
For assay [2], the target named is T1, CC chemokine receptor 2 (CCR2). Kind of assay: [3H]CCR2-RA-[R] displacement (Ki shift), in-gel fluorescence labeling, pull-down proteomics. On the set-up: CCR2 stably expressed in U2OS membranes; HA-CCR2 in HEK293T membranes.
Assay [3] has the same target. Nature of the assay: [3H]CCR2-RA-[R] displacement, […] h preincubation. Also on record: CCR2 stably expressed in U2OS membranes.

Compound `C#CCOc1cc(NC(=O)C=C)ccc1Oc1ccc(Cl)cc1NS(=O)(=O)c1ccc(Cl)c(C(F)(F)F)c1` [6a] returned a Ki in assay [1] of roughly 500 pM. Turning to `C#CCOCCOc1cc(NC(=O)C=C)ccc1Oc1ccc(Cl)cc1NS(=O)(=O)c1ccc(Cl)c(C(F)(F)F)c1` [6b], in assay [1], the inhibition constant Ki was roughly 500 pM. In the case of `C#CCOCCOCCOc1cc(NC(=O)C=C)ccc1Oc1ccc(Cl)cc1NS(=O)(=O)c1ccc(Cl)c(C(F)(F)F)c1` [6c, probe 6c], the Ki in assay [2] was roughly 500 pM.

Compound `C#CCOc1cc(NC(=O)CCSC#N)ccc1Oc1ccc(Cl)cc1NS(=O)(=O)c1ccc(Cl)c(C(F)(F)F)c1` [8a] showed a Ki in assay [3] of roughly 1300 pM. On to `C#CCOCCOc1cc(NC(=O)CCSC#N)ccc1Oc1ccc(Cl)cc1NS(=O)(=O)c1ccc(Cl)c(C(F)(F)F)c1` [8b], for which the Ki in assay [3] is roughly 1300 pM. Compound `C#CCOCCOCCOc1cc(NC(=O)CCSC#N)ccc1Oc1ccc(Cl)cc1NS(=O)(=O)c1ccc(Cl)c(C(F)(F)F)c1` [8c] yielded a Ki in assay [3] of roughly 1300 pM.
